Results reported in patent US20100016360A1 (WYETH, priority 2008, published 2010).

Legend:
Assay type in all cases: in vitro ADME
[1] = target: CYP2D6 (Homo sapiens, UniProt P10635); experiment: CYP2D6 inhibition
[2] = target: CYP2C9 (Homo sapiens, UniProt P11712); experiment: CYP2C9 inhibition
[3] = target: CYP3A4 (Homo sapiens, UniProt P08684); experiment: CYP3A4 inhibition
CYP3A4, sequence (P08684 whole entry, species assumed): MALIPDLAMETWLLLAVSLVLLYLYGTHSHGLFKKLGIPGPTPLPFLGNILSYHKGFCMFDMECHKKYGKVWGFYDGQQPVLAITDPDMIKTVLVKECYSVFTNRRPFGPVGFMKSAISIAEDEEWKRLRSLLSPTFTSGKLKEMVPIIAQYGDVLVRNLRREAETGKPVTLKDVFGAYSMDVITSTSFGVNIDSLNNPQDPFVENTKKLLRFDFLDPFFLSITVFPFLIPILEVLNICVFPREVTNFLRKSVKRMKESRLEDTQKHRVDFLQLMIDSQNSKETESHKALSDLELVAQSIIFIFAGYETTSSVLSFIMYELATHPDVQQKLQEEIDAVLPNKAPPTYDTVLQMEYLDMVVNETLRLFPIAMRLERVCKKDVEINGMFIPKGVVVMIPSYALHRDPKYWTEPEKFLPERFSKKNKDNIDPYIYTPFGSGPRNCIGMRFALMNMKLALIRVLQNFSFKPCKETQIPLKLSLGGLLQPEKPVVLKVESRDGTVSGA

CYP2C9, sequence (P11712 whole entry, species assumed): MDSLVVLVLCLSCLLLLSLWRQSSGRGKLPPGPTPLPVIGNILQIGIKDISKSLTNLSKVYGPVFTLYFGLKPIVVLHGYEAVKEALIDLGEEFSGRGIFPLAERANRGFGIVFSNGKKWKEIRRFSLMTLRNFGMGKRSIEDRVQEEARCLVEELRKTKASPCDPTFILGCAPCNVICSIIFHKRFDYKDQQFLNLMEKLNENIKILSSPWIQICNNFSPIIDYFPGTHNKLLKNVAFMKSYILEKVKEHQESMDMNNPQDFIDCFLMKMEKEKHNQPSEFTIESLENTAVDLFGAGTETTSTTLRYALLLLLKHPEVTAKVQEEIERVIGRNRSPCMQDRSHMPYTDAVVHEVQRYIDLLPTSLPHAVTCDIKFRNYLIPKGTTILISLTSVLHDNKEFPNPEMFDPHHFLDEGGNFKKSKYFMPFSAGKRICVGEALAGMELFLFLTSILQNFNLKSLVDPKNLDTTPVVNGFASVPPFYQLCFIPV
CYP2D6, sequence (P10635 whole entry, species assumed): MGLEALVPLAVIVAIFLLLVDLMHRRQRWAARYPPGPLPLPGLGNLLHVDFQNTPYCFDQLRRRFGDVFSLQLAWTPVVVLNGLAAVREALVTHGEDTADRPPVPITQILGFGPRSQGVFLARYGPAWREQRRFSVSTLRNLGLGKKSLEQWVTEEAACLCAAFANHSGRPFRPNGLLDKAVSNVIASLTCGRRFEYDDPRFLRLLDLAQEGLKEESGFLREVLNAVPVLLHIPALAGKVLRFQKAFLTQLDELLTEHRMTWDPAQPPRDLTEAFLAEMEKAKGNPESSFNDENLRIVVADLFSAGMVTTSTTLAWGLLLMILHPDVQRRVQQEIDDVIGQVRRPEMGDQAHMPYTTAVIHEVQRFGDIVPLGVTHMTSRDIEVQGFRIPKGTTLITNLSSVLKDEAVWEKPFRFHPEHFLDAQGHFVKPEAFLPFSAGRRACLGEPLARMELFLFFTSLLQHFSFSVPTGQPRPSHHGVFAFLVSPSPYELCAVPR

## COc1ncccc1-c1ccc(NC(=O)NCCCCN2CCCCC2)cc1
[1]
  CYP2D6 % inhibition: 8%
[2]
  CYP2C9 % inhibition: −36%
[3]
  CYP3A4 % inhibition: −21%
